Values of other authors in patent US20120252675A1, “HERBICIDE […] A […] E[…] A POLYA[…] THE ALKYL GROUP IS BRANCHED” (priority 2009, published 2012).

Settings: room temperature

O=C(O)CNCP(=O)(O)O [glyphosate]
solubility in water: about 1.5 % by weight
